This note sets out measurements from US9670217B2, “Process for preparing chlorins and their pharmaceutical uses” (UNIVERSIDADE DE COIMBRA, priority 2008, dated 2017).

Assay [1] concerns S91 Cloudman melanoma. Description: PDT of implanted S91 tumors. It is filed as in vivo, DBA/2 mice. The text has this:
The mice used in the present study were form two sources. Dark toxicity, biodistribution and farmacokinetic studies employed DBA/2 mice, weighing 20-30 g, from the animal breeding facility at the Faculty of Biochemistry, Biophysics and Biotechnology, Jagiellonian University, Krakow. The mice were kept on a standard laboratory diet with free access to drinking water. The use of such animals for experimental purposes was approved by the Jagiellonian University Committee for Ethics of Experiments on Animals (decision No. 384/99). Such mice were also employed in PDT.
The tumors grew to reach 5 mm in about one week after the implantation. No spontaneous necrosis was observed. The treatment was initiated when the tumor attained 5 mm in diameter in each animal. The day the tumors reached the treatment size, the mice were injected via i.p. with a dose of 10 mg/kg of Luzitin-C12Et in PEG400. At 24 h post-injection, the mice were anesthetized with ketamine and xylazine, and restrained in plastic holders, then treated with different light doses with the Hamamatsu 748 nm diode laser described before. […] The mice were checked daily, and the size of the tumors was measured and recorded.

In assay [2] the test system is MCF7 (human breast carcinoma). Description: Cell photosensitization, filtered halogen lamp, MTT. It is filed as cell-based. How it is done: (§1) Irradiation in in vitro experiments was performed using either a halogen lamp or a laser source. In the first case, a 500 W halogen lamp was placed 50 cm from the irradiated plate to insure a homogeneous irradiation. A cooled water filter (d=35 mm) and a 600 nm cut off filter were placed between the lamp and samples. The fluence rate reaching samples was 3 mW/cm^2. The emission spectrum of the halogen lamp was recorded using a spectroradiometer IL2000 (Spectrocube), FIG. 1. In the second case, three Lynx external cavity diode lasers TEC 500 powered by PilotPC 500 Laser Controllers (Sacher Lasertechnik, Marburg, Germany) were employed. The laser energies were stable at 40 mW for the 748 nm laser, 10 mW for the 649 laser and 10 mW for the 633 laser. The laser energies were regularly measured with a Coherent LaserCheck. In some in vitro experiments, the laser light was focused on an optical fiber through a collimator in microbench, and delivered to the cells. This system reduced the 748 nm laser light to 30 mW.
(§2) The cell lines employed in halogen lamp irradiation were the MCF7 (human breast carcinoma), SKMEL 188 (human melanoma) and S91/I3 (mouse melanoma) cells. They were used both for cytotoxicity and photocytotoxicity experiments. MCF7 cells were grown supplemented with 10% fetal calf (FBS) serum, 25 units/ml of penicillin, and 25 μg/ml of streptomycin. Human melanoma cells SKMEL-188 were grown in F10 medium supplemented with 10% fetal calf serum (FCS), 100 units/ml of penicillin, and 100 μg/ml of streptomycin. I3 subline of Cloudman S91 melanoma cells were cultured in RPMI 1640 medium supplemented with 100 units/ml of penicillin, 100 μg/ml streptomycin and 5% fetal calf serum (FCS) (Gibco BRL). All cell lines were cultivated as monolayer in Petri dishes of 60 mm diameter and incubated at 37° C. in a humid atmosphere containing 5% CO2.
(§3) Cytotoxicity. Cell metabolic efficiency and viability were determined by the uptake and reduction of 3-(4,5-dimethylthiazol-2-yl)-2,5-diphenyl tetrazolium bromide (MTT) to an insoluble formazan dye by cellular microsomal enzymes. The cell lines were grown in RPMI medium with 10% fetal calf serum, penicillin and streptomycin. Cells were maintained in 5% CO2, 95% air and 100% humidity. For determining cytotoxicity, these cells were plated in 96-well plates at a density of 1×10^4 cells well in complete media. After 24 h, the cells were incubated with photosensitizers at different concentrations (0.25 up to 50 μM) for 18 hours at 37° C. The cells were then washed twice with PBS and incubated in growth medium at 37° C. for 24 h. Next, the medium was replaced by 100 μl of fresh medium and 20 μl of MTT, and the cells were incubated with MTT for 3 h, with a final concentration of 0.5 mg/ml. Then the culture medium was replaced with DMSO-methanol solution (1:1) to dissolve the blue formazan crystals. The 96-well culture plate was shaken for 0.5 min at room temperature and immediately read for optical density at 560 nm using an ELISA reader (GENios Plus; Tecan Trading AG, Switzerland). The cell survival was expressed by the absorbance changes of the formazan salt, and survival rate was given as the percent ratio of viable treated cells vs. the number of viable untreated cells. Number of cells was determined from linear regression of a calibration curve.
(§4) Cell photosensitization. SKMEL 188, S91 and MCF7 cells were prepared as described above. […] The cells were incubated for 12 h at 37° C. and then irradiated at a 0.53 mW cm^2 fluence rate and in doses ranging from 0.1 to 0.64 J cm^2. We recall that photosensitizer uses only ca. ⅕ of the available fluence rate of the filtered halogen lamp. The MTT test was performed 24 h after irradiation. The values were obtained from three independent experiments and expressed as percent of cell survival with reference to control cells, which were manipulated in the same manner but without incubation with photosensitizer and without illumination. […]

Assay [3] has as its system S91 (mouse melanoma). The description is as above. It is filed as cell-based. The settings on record: [Luzitin-Cl] = 20 μM. The protocol: as §1, §2, §3, §4
Where [4] appears, read: [Luzitin-Cl] = 20 μM, filtered halogen lamp.

The structures appear in SMILES notation.

For `CCNS(=O)(=O)c1ccc(Cl)c(-c2c3nc(c(-c4c(Cl)ccc(S(=O)(=O)NCC)c4Cl)c4ccc([nH]4)c(-c4c(Cl)ccc(S(=O)(=O)NCC)c4Cl)c4nc(c(-c5c(Cl)ccc(S(=O)(=O)NCC)c5Cl)c5ccc2[nH]5)CC4)CC3)c1Cl` [Luzitin-Cl2Et, 5,10,15,20-tetrakis(2,6-dichloro-3-N-ethylsulfamoylphenyl)bacteriochlorin], the “tumor response after PDT” value in assay [1] (10 mg/kg i.p. in PEG400, 24 h post-injection, 748 nm laser, single session) was “long-lasting tumor regression”. The “necrosis of irradiated tumor area” value in assay [1] (within minutes of the irradiation) was “evident signals of necroses”.

For the compound `O=S(=O)(O)c1ccc(Cl)c(-c2c3nc(c(-c4cc(S(=O)(=O)O)ccc4Cl)c4ccc([nH]4)c(-c4cc(S(=O)(=O)O)ccc4Cl)c4nc(c(-c5cc(S(=O)(=O)O)ccc5Cl)c5ccc2[nH]5)CC4)CC3)c1` [Luzitin-Cl, 5,10,15,20-tetrakis(2-chloro-5-sulfonylphenyl)bacteriochlorin], the cell kill in assay [2] (5 μM, filtered halogen light 0.6 J/cm^2, 12 h incubation) is recorded as 100%. Besides, the entries for the “LD50 (light dose to kill 50% of the cells)” value in assay [2] (setting [4]) and in assay [3] were 0.08 J/cm^2 and 0.15 J/cm^2, respectively. For the same compound, the figures for the “LD90 (light dose to kill 90% of the cells)” value in assay [2] (setting [4]) and in assay [3] were 0.25 J/cm^2 and 0.3 J/cm^2, respectively.
